Results on one molecule are retold here after PMC5428058, “Local delivery of novel MRTF/SRF inhibitors prevents scar tissue formation in a preclinical model of fibrosis” (Scientific Reports, 2017).

The test system of series [1] is New Zealand white rabbits. The experiment in a line: local and systemic toxicity after glaucoma filtration surgery. Type of series: in vivo. To be noted: rabbit. Here is the method:
(§1) The animals were evaluated twice weekly by a single-masked researcher. Bleb width and length were measured using calipers and intraocular pressures (IOP) were measured using a tonovet (Icare). The primary efficacy end-point was bleb survival as this is indicative of the long-term opening of the filtration pathway created during surgery. Bleb failure was defined as the appearance of a flat, scarred, and vascularised bleb associated with a deep anterior chamber. IOP survival, defined as when the intraocular pressure remains below the baseline IOP measurement, and bleb area were used as secondary end-points. Conjunctival vascularity was graded on a scale of 0 to 3 (0: avascular, 1: normal, 2: hyperaemic, 3: very hyperaemic).
For the Ki67 staining, the sections were dewaxed, rehydrated, and microwaved for 15 minutes in sodium citrate buffer (pH 6) for antigen retrieval. After incubating in 1.6% hydrogen peroxide followed by 10% normal horse serum, the sections were incubated in mouse anti-Ki67 (M7248, Dako) diluted 1 in 25 in 1% BSA/PBS for 1 hour at room temperature. The sections were then incubated in biotinylated horse anti-mouse IgG (Vector) and Avidin-Biotin complex (Vector), developed in DAB (Vector), and counterstained in haematoxylin.
All animals were carefully evaluated for any signs of ocular or systemic toxicity during the study. At day 30, 100 µl of aqueous, 1 ml of vitreous, and 1 ml of venous blood were sampled on the rabbit eyes receiving CCG-222740 or CCG-203971 or vehicle control. The venous blood samples were left to clot for 30 minutes at room temperature, spun at 4000 rpm for 15 minutes at 4 °C, and the serum was collected as the supernatant. Samples were extracted in acetonitrile and the levels of CCG-222740 and CCG-203971 were measured in the aqueous, vitreous, and serum using liquid chromatography/mass spectrometry (LC/MS) in the Metabolomics Core at Michigan State University (East Lansing, MI).

For series [2], the system named is New Zealand white rabbits. Kind of series: rabbit glaucoma filtration surgery model of scar tissue formation, clinical end-points. Type of series: in vivo.
Description: 24 female New Zealand white rabbits (2–2.4 kg, 12—14 weeks, Highgate, UK) underwent experimental glaucoma filtration surgery to the left eye under general anaesthesia, [28]. A superonasal fornix-based conjunctival flap was raised behind the limbus and a micro-vitreoretinal blade (20 gauge, 0.90 mm, Surgistar USA) was used to make a partial thickness scleral tunnel to the corneal stroma. A 22 gauge, 25 mm intravenous cannula was passed through the tunnel and the needle was removed once it was visible in the cornea. The cannula was advanced into the mid-pupillary area, trimmed at its scleral edge and fixed to the scleral surface using a 10–0 nylon suture (Alcon, USA). The conjunctival incision was closed using two interrupted 10–0 nylon sutures. In a randomised, prospective, single-masked observer study, the rabbits received either intraoperative 0.2 mg/ml mitomycin-C (MMC) [N = 6], or postoperative subconjunctival injections (100 μl) of 100 μM CCG-203971 [N = 6] or 100 μM CCG-222740 [N = 6] or vehicle control [N = 6] daily for the first nine days followed by twice weekly for three weeks, [33]. CCG-222740 and CCG-203971 were dissolved in 100% DMSO (Sigma, UK) at 10 mM and then diluted to 100 μM with sterile PBS. The same volume of DMSO was diluted with PBS for the vehicle control. For the MMC-treated group, a small corneal light shield sponge was soaked in 1 ml of 0.2 mg/ml MMC and applied over the conjunctiva for 3 minutes, and the area was then thoroughly washed with 50 ml of physiologic balanced salt solution (Alcon Laboratories, Inc., Fort Worth, TX). All the postoperative subconjunctival injections were given at the same site by a single-masked researcher.
as §1

For `CO[C@@]12[C@H](COC(N)=O)C3=C(C(=O)C(C)=C(N)C3=O)N1C[C@@H]1N[C@@H]12` [MMC, mitomycin-C, reference compound], the “Ki67 positive cells in the conjunctival epithelium” value in series [1] (day 30) is listed as “markedly reduced the number of Ki67 positive cells”. Also, in series [1] (in vivo), the conjunctival vascularity entry is “thin avascular blebs” and the “local toxicity, conjunctival epithelium” value was “caused disruption of the epithelial cell layer”. For the same molecule, the “bleb area compared to vehicle control” value in series [2] was “significantly larger”. In addition, the “mean day of bleb failure” value in series [2] (CCG compounds 100 μM subconjunctival, MMC 0.2 mg/ml intraoperative, vehicle 14 days) worked out at 28.8 days. Further, the “intraocular pressure (IOP)” value in series [2] (versus vehicle control or baseline) is recorded as “significantly lower”.
